Laboratory results: patent publication US4310682A, “Halo-salicylanilide” (priority 1979, dated 1982)

What follows are compounds tested on Escherichia coli NIHJ JC-2 (assay: MIC, agar medium containing the compound). Conditions: bacterium No. 1, 37° C., 4 hours.
Format: cell-based
Experimental: (§1) In order to test antifungal and bactericidal activity of halo-salicylanilide obtained in above mentioned Examples, following bacteria and fungi are employed.
No. 1 Escherichia coli NIHJ JC-2
(§2) Bacteria No. 1 to No. 4 are respectively cultured in Hart Infusion bouillon medium at 37° C. for 20 hours and resulting medium liquids are employed for said test. Fungi No. 5 to No. 7 are respectively cultured in Sabouraud agar medium and 10^6 cell/ml of cell dispersing liquids obtained from said medium are employed for said test.

| SMILES | MIC (Minimum Inhibitory Concentration) |
| --- | --- |
| CC(=O)Oc1ccc(I)cc1C(=O)Nc1ccc(Cl)cc1C [compound 12, 5-iodo-2'-methyl-4'-chloro acetylsalicylanilide] | > 100 |
| CC(=O)Oc1ccc(I)cc1C(=O)Nc1ccc(Br)cc1C [compound 13, 5-iodo-2'-methyl-4'-bromo acetylsalicylanilide] | > 100 |
| CC(=O)Oc1ccc(Cl)cc1C(=O)Nc1ccc(Br)cc1C [compound 8, 5-chloro-2'-methyl-4'-bromo acetylsalicylanilide] | > 100 |
| Cc1cc(Br)ccc1NC(=O)c1cc(Cl)ccc1O [compound 2, 5-chloro-2'-methyl-4'-bromo salicyl anilide] | > 100 |
| Cc1cc(Br)ccc1NC(=O)c1cc(F)ccc1O [compound 16, 5-fluoro-2'-methyl-4'-bromo salicylanilide] | > 100 |
| Cc1cc(I)ccc1NC(=O)c1cc(F)ccc1O [compound 18, 5-fluoro-2'-methyl-4'-iodo salicylanilide] | > 100 |
| Cc1cc(Cl)ccc1NC(=O)c1cc(Br)ccc1O [compound 1, 5-bromo-2'-methyl-4'-chloro salicylanilide] | > 100 |
| O=C(Nc1ccc(Cl)cc1)c1cc(I)cc(I)c1O [Contrast No. 2, reference compound] | > 100 |
| CCc1cc(Cl)ccc1NC(=O)c1cc(I)ccc1O [compound 6, 5-iodo-2'-ethyl-4'-chloro salicylanilide] | > 100 |
| CC(=O)Oc1ccc(F)cc1C(=O)Nc1ccc(I)cc1C [compound 19, 5-fluoro-2'-methyl-4'-iodo acetylsalicylanilide] | > 100 |
| CC(=O)Oc1ccc(F)cc1C(=O)Nc1ccc(Br)cc1C [compound 17, 5-fluoro-2'-methyl-4'-bromo acetylsalicylanilide] | > 100 |

Each compound was assayed on Staphylococcus aureus FDA-209-P (assay: MIC, agar medium containing the compound). Conditions: bacterium No. 3, 37° C., 4 hours.
Format: cell-based
Experimental: as §1
No. 3 Staphylococcus aureus FDA-209-P
as §2

| SMILES | MIC (Minimum Inhibitory Concentration) |
| --- | --- |
| CC(=O)Oc1ccc(I)cc1C(=O)Nc1ccc(Cl)cc1C [compound 12, 5-iodo-2'-methyl-4'-chloro acetylsalicylanilide] | 0.8 |
| CC(=O)Oc1ccc(I)cc1C(=O)Nc1ccc(Br)cc1C [compound 13, 5-iodo-2'-methyl-4'-bromo acetylsalicylanilide] | 0.2 |
| CC(=O)Oc1ccc(Cl)cc1C(=O)Nc1ccc(Br)cc1C [compound 8, 5-chloro-2'-methyl-4'-bromo acetylsalicylanilide] | 0.8 |
| Cc1cc(Br)ccc1NC(=O)c1cc(Cl)ccc1O [compound 2, 5-chloro-2'-methyl-4'-bromo salicyl anilide] | 0.8 |
| Cc1cc(Br)ccc1NC(=O)c1cc(F)ccc1O [compound 16, 5-fluoro-2'-methyl-4'-bromo salicylanilide] | 0.4 |
| Cc1cc(I)ccc1NC(=O)c1cc(F)ccc1O [compound 18, 5-fluoro-2'-methyl-4'-iodo salicylanilide] | 0.4 |
| Cc1cc(Cl)ccc1NC(=O)c1cc(Br)ccc1O [compound 1, 5-bromo-2'-methyl-4'-chloro salicylanilide] | 0.8 |
| CCc1cc(Cl)ccc1NC(=O)c1cc(I)ccc1O [compound 6, 5-iodo-2'-ethyl-4'-chloro salicylanilide] | 0.75 |
| CC(=O)Oc1ccc(F)cc1C(=O)Nc1ccc(I)cc1C [compound 19, 5-fluoro-2'-methyl-4'-iodo acetylsalicylanilide] | 0.4 |
| CC(=O)Oc1ccc(F)cc1C(=O)Nc1ccc(Br)cc1C [compound 17, 5-fluoro-2'-methyl-4'-bromo acetylsalicylanilide] | 0.4 |

What follows are compounds tested on Pseudomonas aeruqinosa NC-5 (assay: MIC, agar medium containing the compound). Conditions: bacterium No. 2, 37° C., 4 hours.
Format: cell-based
Experimental: as §1
No. 2 Pseudomonas aeruqinosa NC-5
as §2

| SMILES | MIC (Minimum Inhibitory Concentration) |
| --- | --- |
| CC(=O)Oc1ccc(I)cc1C(=O)Nc1ccc(Cl)cc1C [compound 12, 5-iodo-2'-methyl-4'-chloro acetylsalicylanilide] | 100 |
| CC(=O)Oc1ccc(I)cc1C(=O)Nc1ccc(Br)cc1C [compound 13, 5-iodo-2'-methyl-4'-bromo acetylsalicylanilide] | 100 |
| CC(=O)Oc1ccc(Cl)cc1C(=O)Nc1ccc(Br)cc1C [compound 8, 5-chloro-2'-methyl-4'-bromo acetylsalicylanilide] | > 100 |
| Cc1cc(Br)ccc1NC(=O)c1cc(Cl)ccc1O [compound 2, 5-chloro-2'-methyl-4'-bromo salicyl anilide] | > 100 |
| Cc1cc(Br)ccc1NC(=O)c1cc(F)ccc1O [compound 16, 5-fluoro-2'-methyl-4'-bromo salicylanilide] | 100 |
| Cc1cc(I)ccc1NC(=O)c1cc(F)ccc1O [compound 18, 5-fluoro-2'-methyl-4'-iodo salicylanilide] | 100 |
| Cc1cc(Cl)ccc1NC(=O)c1cc(Br)ccc1O [compound 1, 5-bromo-2'-methyl-4'-chloro salicylanilide] | > 100 |
| O=C(Nc1ccc(Cl)cc1)c1cc(I)cc(I)c1O [Contrast No. 2, reference compound] | > 100 |
| CC(=O)Oc1ccc(F)cc1C(=O)Nc1ccc(I)cc1C [compound 19, 5-fluoro-2'-methyl-4'-iodo acetylsalicylanilide] | 100 |
| CC(=O)Oc1ccc(F)cc1C(=O)Nc1ccc(Br)cc1C [compound 17, 5-fluoro-2'-methyl-4'-bromo acetylsalicylanilide] | 100 |

What follows are compounds tested on bacteria No. 1 to No. 4 and fungi No. 5 to No. 7 (assay: Antifungal and bactericidal activity test, overall assessment of Table 8). Conditions: referring to Table 8.
Format: cell-based
Experimental: as §1, §2
Referring now to Table 8, in said Examples the halo-salicylanilides provided have respectively remarkable higher antifungal and bactericidal activity than that of the contrasts proposed and said halo-salicylanilidesare especially effective on bacteria No. 3 and No. 4, and fungi No. 5, No. 6 and No. 7. This testifies that alkyl group of 2'-position of the halo-salicylanilides is significant for the activities of the compound. […] Especially the halo-salicylanilides having fluorine in 5-position are very useful for agricultural medicines.

| SMILES | antifungal and bactericidal activity (assessment in words) |
| --- | --- |
| CC(=O)Oc1ccc(I)cc1C(=O)Nc1ccc(Br)cc1C [compound 13, 5-iodo-2'-methyl-4'-bromo acetylsalicylanilide] | remarkable antifungal and bactericidal activity |
| CCc1cc(Cl)ccc1NC(=O)c1cc(I)ccc1O [compound 6, 5-iodo-2'-ethyl-4'-chloro salicylanilide] | remarkable antifungal and bactericidal activity |

Each compound was assayed on Candida albicans ATCC 10259 (assay: MIC, Sabouraud agar medium containing the compound). Conditions: fungus No. 5, 20° C., 14 days.
Format: cell-based
Experimental: as §1
No. 5 Candida albicans ATCC 10259
as §2

| SMILES | MIC (Minimum Inhibitory Concentration) |
| --- | --- |
| CC(=O)Oc1ccc(I)cc1C(=O)Nc1ccc(Cl)cc1C [compound 12, 5-iodo-2'-methyl-4'-chloro acetylsalicylanilide] | 100 |
| CC(=O)Oc1ccc(I)cc1C(=O)Nc1ccc(Br)cc1C [compound 13, 5-iodo-2'-methyl-4'-bromo acetylsalicylanilide] | 100 |
| CC(=O)Oc1ccc(Cl)cc1C(=O)Nc1ccc(Br)cc1C [compound 8, 5-chloro-2'-methyl-4'-bromo acetylsalicylanilide] | 100 |
| Cc1cc(Br)ccc1NC(=O)c1cc(Cl)ccc1O [compound 2, 5-chloro-2'-methyl-4'-bromo salicyl anilide] | 50 |
| Cc1cc(Br)ccc1NC(=O)c1cc(F)ccc1O [compound 16, 5-fluoro-2'-methyl-4'-bromo salicylanilide] | 100 |
| Cc1cc(I)ccc1NC(=O)c1cc(F)ccc1O [compound 18, 5-fluoro-2'-methyl-4'-iodo salicylanilide] | 100 |
| Cc1cc(Cl)ccc1NC(=O)c1cc(Br)ccc1O [compound 1, 5-bromo-2'-methyl-4'-chloro salicylanilide] | 50 |
| O=C(Nc1ccc(Cl)cc1)c1cc(I)cc(I)c1O [Contrast No. 2, reference compound] | 50 |
| CCc1cc(Cl)ccc1NC(=O)c1cc(I)ccc1O [compound 6, 5-iodo-2'-ethyl-4'-chloro salicylanilide] | 6.3 |
| CC(=O)Oc1ccc(F)cc1C(=O)Nc1ccc(I)cc1C [compound 19, 5-fluoro-2'-methyl-4'-iodo acetylsalicylanilide] | 100 |
| CC(=O)Oc1ccc(F)cc1C(=O)Nc1ccc(Br)cc1C [compound 17, 5-fluoro-2'-methyl-4'-bromo acetylsalicylanilide] | 100 |

The compounds below were run on Trichophyton rubrum IFO 9185 (assay: MIC, Sabouraud agar medium containing the compound). Conditions: fungus No. 7, 20° C., 14 days.
Format: cell-based
Experimental: as §1
No. 7 Trichophyton rubrum IFO 9185
as §2

| SMILES | MIC (Minimum Inhibitory Concentration) |
| --- | --- |
| CC(=O)Oc1ccc(I)cc1C(=O)Nc1ccc(Cl)cc1C [compound 12, 5-iodo-2'-methyl-4'-chloro acetylsalicylanilide] | 0.8 |
| CC(=O)Oc1ccc(I)cc1C(=O)Nc1ccc(Br)cc1C [compound 13, 5-iodo-2'-methyl-4'-bromo acetylsalicylanilide] | 12.5 |
| CC(=O)Oc1ccc(Cl)cc1C(=O)Nc1ccc(Br)cc1C [compound 8, 5-chloro-2'-methyl-4'-bromo acetylsalicylanilide] | < 0.8 |
| Cc1cc(Br)ccc1NC(=O)c1cc(Cl)ccc1O [compound 2, 5-chloro-2'-methyl-4'-bromo salicyl anilide] | 50 |
| Cc1cc(Br)ccc1NC(=O)c1cc(F)ccc1O [compound 16, 5-fluoro-2'-methyl-4'-bromo salicylanilide] | < 0.8 |
| Cc1cc(I)ccc1NC(=O)c1cc(F)ccc1O [compound 18, 5-fluoro-2'-methyl-4'-iodo salicylanilide] | < 0.8 |
| Cc1cc(Cl)ccc1NC(=O)c1cc(Br)ccc1O [compound 1, 5-bromo-2'-methyl-4'-chloro salicylanilide] | 50 |
| O=C(Nc1ccc(Cl)cc1)c1cc(I)cc(I)c1O [Contrast No. 2, reference compound] | 50 |
| CCc1cc(Cl)ccc1NC(=O)c1cc(I)ccc1O [compound 6, 5-iodo-2'-ethyl-4'-chloro salicylanilide] | 3.2 |
| CC(=O)Oc1ccc(F)cc1C(=O)Nc1ccc(I)cc1C [compound 19, 5-fluoro-2'-methyl-4'-iodo acetylsalicylanilide] | < 0.8 |
| CC(=O)Oc1ccc(F)cc1C(=O)Nc1ccc(Br)cc1C [compound 17, 5-fluoro-2'-methyl-4'-bromo acetylsalicylanilide] | < 0.8 |

The compounds below were run on Bacillus subtilis PCI-219 (assay: MIC, agar medium containing the compound). Conditions: bacterium No. 4, 37° C., 4 hours.
Format: cell-based
Experimental: as §1
No. 4 Bacillus subtilis PCI-219
as §2

| SMILES | MIC (Minimum Inhibitory Concentration) |
| --- | --- |
| CC(=O)Oc1ccc(I)cc1C(=O)Nc1ccc(Cl)cc1C [compound 12, 5-iodo-2'-methyl-4'-chloro acetylsalicylanilide] | 0.8 |
| CC(=O)Oc1ccc(I)cc1C(=O)Nc1ccc(Br)cc1C [compound 13, 5-iodo-2'-methyl-4'-bromo acetylsalicylanilide] | 0.4 |
| CC(=O)Oc1ccc(Cl)cc1C(=O)Nc1ccc(Br)cc1C [compound 8, 5-chloro-2'-methyl-4'-bromo acetylsalicylanilide] | 0.8 |
| Cc1cc(Br)ccc1NC(=O)c1cc(Cl)ccc1O [compound 2, 5-chloro-2'-methyl-4'-bromo salicyl anilide] | 0.8 |
| Cc1cc(Br)ccc1NC(=O)c1cc(F)ccc1O [compound 16, 5-fluoro-2'-methyl-4'-bromo salicylanilide] | 0.4 |
| Cc1cc(I)ccc1NC(=O)c1cc(F)ccc1O [compound 18, 5-fluoro-2'-methyl-4'-iodo salicylanilide] | 0.4 |
| Cc1cc(Cl)ccc1NC(=O)c1cc(Br)ccc1O [compound 1, 5-bromo-2'-methyl-4'-chloro salicylanilide] | 0.8 |
| CCc1cc(Cl)ccc1NC(=O)c1cc(I)ccc1O [compound 6, 5-iodo-2'-ethyl-4'-chloro salicylanilide] | 0.75 |
| CC(=O)Oc1ccc(F)cc1C(=O)Nc1ccc(I)cc1C [compound 19, 5-fluoro-2'-methyl-4'-iodo acetylsalicylanilide] | 0.4 |
| CC(=O)Oc1ccc(F)cc1C(=O)Nc1ccc(Br)cc1C [compound 17, 5-fluoro-2'-methyl-4'-bromo acetylsalicylanilide] | 0.4 |

The compounds below were run on Candida albicans ATCC 10259 (assay: Multiplying state after removal to compound-free medium (scanning electron microscope)). Conditions: first cultured in medium containing the compound, then removed; FIG. 1 and FIG. 2.
Format: cell-based

| SMILES | multiplying state of the fungi after removal to culture medium without the compound |
| --- | --- |
| O=C(Nc1ccc(Cl)cc1)c1cc(I)cc(I)c1O [Contrast No. 2, reference compound] | again starts to multiply |

These compounds were tested on Aspergillus flavus IFO 8558 (assay: MIC, Sabouraud agar medium containing the compound). Conditions: fungus No. 6, 20° C., 14 days.
Format: cell-based
Experimental: as §1
No. 6 Aspergillus flavus IFO 8558
as §2

| SMILES | MIC (Minimum Inhibitory Concentration) |
| --- | --- |
| Cc1cc(Br)ccc1NC(=O)c1cc(Cl)ccc1O [compound 2, 5-chloro-2'-methyl-4'-bromo salicyl anilide] | 50 |
| Cc1cc(Cl)ccc1NC(=O)c1cc(Br)ccc1O [compound 1, 5-bromo-2'-methyl-4'-chloro salicylanilide] | 50 |
| O=C(Nc1ccc(Cl)cc1)c1cc(I)cc(I)c1O [Contrast No. 2, reference compound] | > 100 |
| CCc1cc(Cl)ccc1NC(=O)c1cc(I)ccc1O [compound 6, 5-iodo-2'-ethyl-4'-chloro salicylanilide] | 3.2 |
